Converted amounts (≈) assume the structure as drawn. Where two headings read alike, the source gives them in different places.
Key:
A. baumannii J2 [1] = test: Preliminary MBC without and with sub-inhibitory polymyxin B (Example 4); assay type: cell-based, Acinetobacter baumannii; conditions: Acinetobacter baumannii, preliminary MBC
A. baumannii J2 [2] = test: MIC without and with sub-inhibitory polymyxin B (Example 4); assay type: cell-based, Acinetobacter baumannii
A. baumannii NCTC 13301 [3] = test: as above; assay type: cell-based, Acinetobacter baumannii; conditions: +[…] PB, 2nd experiment
[4] = tested on: Acinetobacter sp. (H064200250); test: Preliminary MBC without and with sub-inhibitory polymyxin B (Example 4); assay type: cell-based; conditions: Acinetobacter, preliminary MBC
Method in brief: (§1)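 After plating, cultures are held at 37° C for 18-20 hours; the endpoint is then scored by comparing colony growth against the positive control, with MBC defined as the lowest concentration showing roughly 90% reduction.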

A. baumannii A473 [5] = test: as above; assay type: cell-based, Acinetobacter baumannii; conditions: Acinetobacter baumannii, A473, A. baumannii A473, +0.06 μg/ml PB, 2nd experiment, read-out: MBC
Method in brief: as §1

A. baumannii A14 [6] = test: as above; assay type: cell-based, Acinetobacter baumannii; conditions: 2nd experiment
Method in brief: as §1

A. baumannii NCTC 13301 [7] = test: as above; assay type: cell-based, Acinetobacter baumannii; conditions: Acinetobacter baumannii
Method in brief: as §1

A. baumannii A390 [8] = test: as above; assay type: cell-based, Acinetobacter baumannii; conditions: Acinetobacter baumannii, A390, A. baumannii A390, +0.06 μg/ml PB, 2nd experiment, read-out: MBC
Method in brief: as §1

A. baumannii A489 = test: MIC without and with sub-inhibitory polymyxin B (Example 4); assay type: cell-based, Acinetobacter baumannii; conditions: for MIC without PB/MIC + PB: A. baumannii A489; for MIC: Acinetobacter baumannii
A. baumannii A401 [9] = test: Preliminary MBC without and with sub-inhibitory polymyxin B (Example 4); assay type: cell-based, Acinetobacter baumannii; conditions: Acinetobacter baumannii
A. baumannii A472 [10] = test: MIC without and with sub-inhibitory polymyxin B (Example 4); assay type: cell-based, Acinetobacter baumannii; conditions: for MIC: Acinetobacter baumannii
A. baumannii A472 [11] = test: Preliminary MBC without and with sub-inhibitory polymyxin B (Example 4); assay type: cell-based, Acinetobacter baumannii; conditions: Acinetobacter baumannii, preliminary MBC
[12] = tested on: Acinetobacter sp. (H064200250); test: MIC without and with sub-inhibitory polymyxin B (Example 4); assay type: cell-based; conditions: for MIC: Acinetobacter
A. baumannii A390 [13] = test: as above; assay type: cell-based, Acinetobacter baumannii; conditions: +0.06 μg/ml PB, 2nd experiment
A. baumannii A473 [14] = test: as above; assay type: cell-based, Acinetobacter baumannii; conditions: +0.06 μg/ml PB, 2nd experiment
A. baumannii ATCC 19606 [15] = test: as above; assay type: cell-based, Acinetobacter baumannii; conditions: for MIC without PB/MIC + PB: A. baumannii ATCC 19606; for MIC: Acinetobacter baumannii
A. baumannii A329 = test: Preliminary MBC without and with sub-inhibitory polymyxin B (Example 4); assay type: cell-based, Acinetobacter baumannii; conditions: Acinetobacter baumannii, A329, A. baumannii A329, +0.06 μg/ml PB, 2nd experiment, read-out: MBC
A. baumannii A14 [16] = test: MIC without and with sub-inhibitory polymyxin B (Example 4); assay type: cell-based, Acinetobacter baumannii; conditions: 1st experiment
A. baumannii A387 [17] = test: Preliminary MBC without and with sub-inhibitory polymyxin B (Example 4); assay type: cell-based, Acinetobacter baumannii; conditions: Acinetobacter baumannii
A. baumannii ATCC 19606 [18] = test: as above; assay type: cell-based, Acinetobacter baumannii; conditions: Acinetobacter baumannii
A. baumannii A401 [19] = test: MIC without and with sub-inhibitory polymyxin B (Example 4); assay type: cell-based, Acinetobacter baumannii; conditions: for MIC: Acinetobacter baumannii
A. baumannii A387 [20] = test: as above; assay type: cell-based, Acinetobacter baumannii; conditions: for MIC without PB/MIC + PB: A. baumannii A387; for MIC: Acinetobacter baumannii
A. baumannii NCTC 13301 [21] = test: as above; assay type: cell-based, Acinetobacter baumannii
[22] = tested on: strains of A. baumannii and one strain of Acinetobacter sp.; test: MIC with sub-inhibitory concentrations (0.25x MIC) of polymyxin B, panel of Acinetobacter strains (Example 4); assay type: cell-based; conditions: 2nd experiment; 0.06 μg/ml polymyxin B; all strains except the ATCC strain
[23] = ratio, PB 0.06 μg/ml, 1st experiment

With Cc1c(-c2ccc(N)cc2)ccn2c(=O)c(C(=O)O)cc(C3CC3)c12 [Compound 8, 8-(4-amino-phenyl)-1-cyclopropyl-9-methyl-4-oxo-quinolizine-3-carboxylic acid] the MBC (A. baumannii J2 [1]; J2, A. baumannii J2, +[…] PB, 2nd experiment, read-out: MBC) was ≤ 0.03 µg/mL, the MBC (A. baumannii J2 [1]; J2, read-out: MBC +[…] PB, A. baumannii J2, +[…] polymyxin B, 1st experiment) was 0.125 µg/mL (≈ 0.374 µM) and the “MIC without PB/MIC + PB” value (A. baumannii J2 [2]; A. baumannii J2, +[…] PB, 2nd experiment) was ≥128. The “MIC +[…] PB” value (A. baumannii J2 [2]; A. baumannii J2, +[…] polymyxin B, 1st experiment) was 0.125 µg/mL (≈ 0.374 µM), the “MIC without PB/MIC + PB” value (A. baumannii J2 [2]; A. baumannii J2, ratio, PB […], 1st experiment) was 64 and the MIC (A. baumannii J2 [2]; Acinetobacter baumannii, J2, A. baumannii J2, +[…] PB, 2nd experiment, read-out: MIC) was ≤ 0.03 µg/mL. For the same compound, the “MIC without PB/MIC + PB” value (A. baumannii NCTC 13301 [3]; A. baumannii NCTC 13301) was 32, the MIC (A. baumannii NCTC 13301 [3]; Acinetobacter baumannii, NCTC13301, A. baumannii NCTC 13301, read-out: MIC) was 0.5 µg/mL (≈ 1.5 µM) and the MBC ([4]; Acinetobacter spp. H064200250 (OXA51), +[…] PB, 2nd experiment, read-out: MBC) was 0.125 µg/mL (≈ 0.374 µM). It also gave an MBC ([4]; read-out: MBC +[…] PB, Acinetobacter spp. H064200250, +[…] polymyxin B, 1st experiment) of 0.5 µg/mL (≈ 1.5 µM), an MBC (A. baumannii A473 [5]) of 0.5 µg/mL (≈ 1.5 µM) and an MBC (A. baumannii A14 [6]; A. baumannii A14, +0.06 μg/ml PB) of 0.5 µg/mL (≈ 1.5 µM). For the same compound, the MBC (A. baumannii A14 [6]; Acinetobacter baumannii, A14, A. baumannii A14, without PB, read-out: MBC) was 16 µg/mL (≈ 47.9 µM), the MBC (A. baumannii NCTC 13301 [7]; NCTC13301, A. baumannii NCTC 13301, +[…] PB, preliminary MBC, 2nd experiment, read-out: MBC) was 0.5 µg/mL (≈ 1.5 µM) and the MBC (A. baumannii NCTC 13301 [7]; NCTC13301, read-out: MBC +[…] PB) was 1 µg/mL (≈ 2.99 µM). For the same compound, the MBC (A. baumannii A390 [8]) was 0.5 µg/mL (≈ 1.5 µM), the “MIC without PB/MIC + PB” value (A. baumannii A489; +[…] PB, 2nd experiment) was ≥256 and the “MIC without PB/MIC + PB” value (A. baumannii A489; ratio, PB […], 1st experiment) was ≥64. For the same compound, the MIC (A. baumannii A489; A489, A. baumannii A489, +[…] PB, 2nd experiment, read-out: MIC) was ≤ 0.03 µg/mL, the MIC (A. baumannii A489; A489, read-out: MIC +[…] PB, A. baumannii A489, +[…] polymyxin B, 1st experiment) was ≤ 0.03 µg/mL and the MBC (A. baumannii A401 [9]; A401, A baumannii A 401, +0.06 μg/ml PB, 2nd experiment, read-out: MBC) was 0.25 µg/mL (≈ 0.748 µM). For the same compound, the MBC (A. baumannii A401 [9]; A401, read-out: MBC +0.06 μg/ml PB, A baumannii A 401, +0.06 μg/ml polymyxin B, 1st experiment) was ≤ 0.03 µg/mL, the “MIC without PB/MIC + PB” value (A. baumannii A472 [10]; A. baumannii A472, ratio, PB […], 1st experiment) was ≥128 and the MIC (A. baumannii A472 [10]; A472, A. baumannii A472, +[…] PB, 2nd experiment, read-out: MIC) was 0.06 µg/mL (≈ 0.179 µM). For the same compound, the MIC (A. baumannii A472 [10]; A472, read-out: MIC +[…] PB, A. baumannii A472, +[…] polymyxin B, 1st experiment) was ≤ 0.03 µg/mL, the MBC (A. baumannii A472 [11]; A472, A. baumannii A472, +[…] PB, 2nd experiment, read-out: MBC) was 0.06 µg/mL (≈ 0.179 µM) and the MBC (A. baumannii A472 [11]; A472, read-out: MBC +[…] PB, A. baumannii A472, +[…] polymyxin B, 1st experiment) was ≤ 0.03 µg/mL. For the same compound, the “MIC without PB/MIC + PB” value ([12]; Acinetobacter spp. H064200250 (OXA51), +[…] PB, 2nd experiment) was 32, the “MIC without PB/MIC + PB” value ([12]; Acinetobacter spp. H064200250, ratio, PB […], 1st experiment) was 32 and the MIC ([12]; Acinetobacter spp. H064200250 (OXA51), +[…] PB, 2nd experiment, read-out: MIC) was 0.125 µg/mL (≈ 0.374 µM). The MIC ([12]; read-out: MIC +[…] PB, Acinetobacter spp. H064200250, +[…] polymyxin B, 1st experiment) was 0.06 µg/mL (≈ 0.179 µM), the “MIC without PB/MIC + PB” value (A. baumannii A390 [13]; A. baumannii A390) was 32 and the MIC (A. baumannii A390 [13]; Acinetobacter baumannii, A390, A. baumannii A390, read-out: MIC) was 0.5 µg/mL (≈ 1.5 µM). For the same compound, the “MIC without PB/MIC + PB” value (A. baumannii A473 [14]; A. baumannii A473) was 8, the MIC (A. baumannii A473 [14]; Acinetobacter baumannii, A473, A. baumannii A473, read-out: MIC) was 0.5 µg/mL (≈ 1.5 µM) and the “MIC without PB/MIC + PB” value (A. baumannii ATCC 19606 [15]; +0.06 μg/ml PB, 2nd experiment) was ≥8. The “MIC without PB/MIC + PB” value (A. baumannii ATCC 19606 [15]; [23]) was ≥32, the MIC (A. baumannii ATCC 19606 [15]; ATCC19606, A. baumannii ATCC 19606, +0.06 μg/ml PB, 2nd experiment, read-out: MIC) was ≤ 0.03 µg/mL and the MIC (A. baumannii ATCC 19606 [15]; ATCC19606, read-out: MIC +0.06 μg/ml PB, A. baumannii ATCC 19606, +0.06 μg/ml polymyxin B, 1st experiment) was ≤ 0.03 µg/mL. The MBC (A. baumannii A329) was 2 µg/mL (≈ 5.98 µM), the “MIC +0.06 μg/ml PB” value (A. baumannii A14 [16]; +0.06 μg/ml polymyxin B) was 1 µg/mL and the “MIC without PB/MIC + PB” value (A. baumannii A14 [16]; ratio, PB 0.06 μg/ml) was 32. The MBC (A. baumannii A387 [17]; A387, A. baumannii A387, +0.06 μg/ml PB, 2nd experiment, read-out: MBC) was 0.25 µg/mL (≈ 0.748 µM), the MBC (A. baumannii A387 [17]; A387, read-out: MBC +0.06 μg/ml PB, A. baumannii A387, +0.06 μg/ml polymyxin B, 1st experiment) was ≤ 0.03 µg/mL and the MBC (A. baumannii ATCC 19606 [18]; ATCC19606, A. baumannii ATCC 19606, +0.06 μg/ml PB, 2nd experiment, read-out: MBC) was ≤ 0.03 µg/mL. The MBC (A. baumannii ATCC 19606 [18]; ATCC19606, read-out: MBC +0.06 μg/ml PB, A. baumannii ATCC 19606, +0.06 μg/ml polymyxin B, 1st experiment) was ≤ 0.03 µg/mL, the “MIC without PB/MIC + PB” value (A. baumannii A401 [19]; A baumannii A 401, ratio, PB 0.06 μg/ml, 1st experiment) was ≥1024 and the MIC (A. baumannii A401 [19]; A401, A baumannii A 401, +0.06 μg/ml PB, 2nd experiment, read-out: MIC) was 0.25 µg/mL (≈ 0.748 µM). For the same compound, the MIC (A. baumannii A401 [19]; A401, read-out: MIC +0.06 μg/ml PB, A baumannii A 401, +0.06 μg/ml polymyxin B, 1st experiment) was ≤ 0.03 µg/mL, the “MIC without PB/MIC + PB” value (A. baumannii A387 [20]; +0.06 μg/ml PB, 2nd experiment) was 2 and the “MIC without PB/MIC + PB” value (A. baumannii A387 [20]; [23]) was ≥64. For the same compound, the MIC (A. baumannii A387 [20]; A387, A. baumannii A387, +0.06 μg/ml PB, 2nd experiment, read-out: MIC) was 0.5 µg/mL (≈ 1.5 µM), the MIC (A. baumannii A387 [20]; A387, read-out: MIC +0.06 μg/ml PB, A. baumannii A387, +0.06 μg/ml polymyxin B, 1st experiment) was ≤ 0.03 µg/mL and the “MIC without PB/MIC + PB” value (A. baumannii NCTC 13301 [21]; A. baumannii NCTC 13301, ratio, PB […], 1st experiment) was 64. The MIC (A. baumannii NCTC 13301 [21]; Acinetobacter baumannii, NCTC13301, read-out: MIC +[…] PB) was 0.5 µg/mL (≈ 1.5 µM) and the “MIC range with PB (0.25x MIC) Oct. 14, 2008 n = 11” value [22] was ≤0.03 to 8 µg/mL.
